In PMC7748245, “Identification and Optimization of a Series of 8-Hydroxy Naphthyridines with Potent In Vitro Antileishmanial Activity: Initial SAR and Assessment of In Vivo Activity” (Journal of Medicinal Chemistry, 2020):
Like-named read-outs stand apart in the source and are kept apart here.

Legend:
[1] = test system: L. donovani amastigotes; assay: Intramacrophage L. donovani assay (Ld InMac); type: cell-based, Leishmania donovani; settings: for IC50 / LdInMac pIC50: supplement sheet; for IC50: read-out: LdInMac pIC50 (converted)
Procedure: (§1) This assay was conducted as previously described,[8] except for compound exposure time, which was 96 h instead of 72 h.

[2] = test system: THP-1 cells; assay: THP-1 host cell toxicity readout of the intramacrophage assay; type: cell-based, human; settings: for IC50: Homo sapiens, THP-1, read-out: THP1 pIC50 (converted); for IC50 / THP1 pIC50: supplement sheet; for EC50 / THP-1 (pEC50): human THP-1 host cells; for EC50: read-out: THP-1 (pEC50) (converted)
Procedure: as §1

[3] = Mouse PK study 50 mg/kg ip (metabolites, tolerability); type: in vivo
Procedure: Since 7 itself was metabolically unstable (Cli = 10 mg/mL/g), we became interested in transferring the SAR from the triazole subseries (e.g., 16) to investigate its impact on metabolic stability, with a particular focus on glucuronidation. To this end, we synthesized 26 (Table 5) as a direct analogue of triazole 16.
Figure 3 PK profile of 26, showing levels of parent, glucuronide adduct, major hydroxylated metabolite, and other minor metabolites. Data are based on two replicates, with error bars representing the range of the data from the two runs. Blood/water (30 μL, 1:2) were collected following 50 mg/kg ip administration to Balb C mice at prescribed time points; 90 μL of acetonitrile (ACN) was then added to each sample and the samples were centrifuged for 5 min at 7000 rpm; 90 μL of supernatant was removed and added to 50 μL of Milli-Q water before ultrahigh-performance liquid chromatography–quadrupole time-of-flight (UPLC Q-TOF) analysis.
We synthesized a set of benzyl amides, where 4-methoxy analogue 27 and α-methyl-4-fluoro analogue 28 both gave very encouraging profiles, meeting progression criteria in terms of potency, metabolic stability, and clearance. […] Due to its impressive in vitro potency, we selected 28 for progression into an in vivo PK study.
We noted that a related compound from Merck, L-870,810 (30),[17] was reported as a clinical candidate targeting HIV integrase, which progressed as far as phase II clinical trials. […] Also, introducing substituents into the 5-naphthyridyl position had been a successful strategy for improving metabolic stability and potency in the triazole subseries. We therefore investigated a range of 5-substituted naphthyridyl analogues (Table 5). THP-amine 31 and morpholine 32 lost potency compared to parent compound 7, so we switched attention back to 5-phenylnaphthyridines. […] Further combinations of nonaromatic amides with differently substituted 5-phenylnaphthyridines were synthesized, and while changing the phenyl substituent gave flat SAR and no advantage over previous compounds, exploration of the amide led to 34 with a trans-4-methoxycyclopropylamide. Compound 34 gave a good balance of potency, solubility, and microsomal stability and was therefore selected for a mouse PK study.

[4] = Kinetic aqueous solubility; type: physicochemical; settings: for solubility: aqueous medium (not further specified), supplement sheet; for solubility kinetic: read-out: Aq Solubility (kinetic aqueous solubility)
Procedure: (§2) These assays were conducted as previously described.[23]

[5] = test system: phospholipidosis; assay: GSK eXP: phospholipidosis assay; type: cell-based; settings: GSK eXP panel
Text: (§3) First, the compounds which were poorly tolerated in mice, 28 and 34, were screened against a panel of >30 receptors with known links to in vivo toxicity (GSK-enhanced cross-screen panel (eXP)).[18] […] From this, it was not clear whether the effects seen in the receptor screen were related to the observed in vivo toxicity.

[6] = molecular target: bile salt export pump (BSEP) (Homo sapiens, UniProt O95342); assay: GSK eXP: bile salt export pump (BSEP) assay; type: biochemical; settings: GSK eXP panel; read-out: pIC50 in BSEP assay (converted)
Text: as §3

[7] = Chrom Log D pH7.4; type: physicochemical; settings: for chromatographic logD / ChromLogDpH7.4: pH 7.4
Procedure: This assay was conducted as previously described.[11]

[8] = Mouse liver microsomal intrinsic clearance; type: in vitro ADME; settings: for Cli (mouse liver microsomal intrinsic clearance): mouse liver microsomes; for Cli (mouse, ml/min/g): supplement sheet
Procedure: as §2

[9] = test system: cell health (mitochondrial integrity); assay: GSK eXP: phenotypic cell health assay; type: cell-based; settings: GSK eXP panel
Text: as §3

[10] = test system: Leishmania donovani; assay: VL mouse in vivo efficacy model (liver parasite burden, LDU)
Procedure: (§4) Because of having higher metabolic stability (in mouse liver microsomes) and lower Chrom Log D, compound 16 was progressed into a VL in vivo efficacy study, carried out in our previously described VL mouse model.[7] […] Parasite load was determined in the livers of animals 3 days after cessation of treatment, and parasite burden was expressed in Leishman Donovan units (LDUs, the mean number of amastigotes per liver cell × mg weight of liver). The blood exposure of compound 16 was also determined in dosed animals on days 1 and 5 to better understand the PK/pharmacodynamics (PD) relationship of the series. According to our project criteria, a compound needs to reduce parasite burden by >70% before being considered suitable for progression to lead-optimization, while a reduction of >95% would be considered suitable for a preclinical development candidate.[12]
In vivo studies were carried out as previously described.[12]

[11] = mouse, in vivo
Procedure: as §4, with “candidate.[12] In the study, miltefosine behaved as expected, reducing parasite levels by >99% at 30 mg/kg qd. After twice daily ip dosing at 50 mg/kg, compound 16 reduced parasite burden in mouse liver by 46%. This provided an early proof of concept for this series but fell short of our target of >70% parasite reduction.” for “candidate.[12]”

[12] = type: in vitro ADME, mouse
Procedure: As a means of measuring glucuronidation in vitro, 16 was assessed in a mouse liver hepatocyte assay.

[13] = molecular target: T1, monoamine oxidase A (Homo sapiens, UniProt P21397); assay: GSK enhanced cross-screen panel (eXP): monoamine oxidase A; type: biochemical; settings: read-out: pIC50 against monoamine oxidase A (converted)
T1 sequence (P21397 1-527): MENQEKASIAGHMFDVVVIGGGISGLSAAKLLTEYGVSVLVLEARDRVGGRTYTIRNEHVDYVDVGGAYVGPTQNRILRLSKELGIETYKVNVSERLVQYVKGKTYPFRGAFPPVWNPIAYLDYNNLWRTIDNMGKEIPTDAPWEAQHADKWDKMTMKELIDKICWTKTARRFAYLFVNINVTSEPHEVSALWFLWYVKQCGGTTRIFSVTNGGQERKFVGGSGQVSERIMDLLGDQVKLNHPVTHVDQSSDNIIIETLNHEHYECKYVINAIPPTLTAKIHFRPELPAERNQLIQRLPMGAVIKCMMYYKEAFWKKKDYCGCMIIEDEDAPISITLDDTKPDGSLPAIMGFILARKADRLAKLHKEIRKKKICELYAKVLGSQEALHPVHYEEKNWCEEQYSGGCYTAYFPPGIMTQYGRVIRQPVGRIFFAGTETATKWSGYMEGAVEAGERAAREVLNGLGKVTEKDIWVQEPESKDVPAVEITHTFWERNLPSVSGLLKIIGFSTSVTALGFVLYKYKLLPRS
Text: as §3

[14] = chromatographic (HPLC retention) system, supplement sheet, read-out: ChromLogD
[15] = chromatographic system (Chrom Log D), read-out: ChromLogDpH7.4

bile salt export pump (BSEP), sequence (O95342 whole entry, species assumed): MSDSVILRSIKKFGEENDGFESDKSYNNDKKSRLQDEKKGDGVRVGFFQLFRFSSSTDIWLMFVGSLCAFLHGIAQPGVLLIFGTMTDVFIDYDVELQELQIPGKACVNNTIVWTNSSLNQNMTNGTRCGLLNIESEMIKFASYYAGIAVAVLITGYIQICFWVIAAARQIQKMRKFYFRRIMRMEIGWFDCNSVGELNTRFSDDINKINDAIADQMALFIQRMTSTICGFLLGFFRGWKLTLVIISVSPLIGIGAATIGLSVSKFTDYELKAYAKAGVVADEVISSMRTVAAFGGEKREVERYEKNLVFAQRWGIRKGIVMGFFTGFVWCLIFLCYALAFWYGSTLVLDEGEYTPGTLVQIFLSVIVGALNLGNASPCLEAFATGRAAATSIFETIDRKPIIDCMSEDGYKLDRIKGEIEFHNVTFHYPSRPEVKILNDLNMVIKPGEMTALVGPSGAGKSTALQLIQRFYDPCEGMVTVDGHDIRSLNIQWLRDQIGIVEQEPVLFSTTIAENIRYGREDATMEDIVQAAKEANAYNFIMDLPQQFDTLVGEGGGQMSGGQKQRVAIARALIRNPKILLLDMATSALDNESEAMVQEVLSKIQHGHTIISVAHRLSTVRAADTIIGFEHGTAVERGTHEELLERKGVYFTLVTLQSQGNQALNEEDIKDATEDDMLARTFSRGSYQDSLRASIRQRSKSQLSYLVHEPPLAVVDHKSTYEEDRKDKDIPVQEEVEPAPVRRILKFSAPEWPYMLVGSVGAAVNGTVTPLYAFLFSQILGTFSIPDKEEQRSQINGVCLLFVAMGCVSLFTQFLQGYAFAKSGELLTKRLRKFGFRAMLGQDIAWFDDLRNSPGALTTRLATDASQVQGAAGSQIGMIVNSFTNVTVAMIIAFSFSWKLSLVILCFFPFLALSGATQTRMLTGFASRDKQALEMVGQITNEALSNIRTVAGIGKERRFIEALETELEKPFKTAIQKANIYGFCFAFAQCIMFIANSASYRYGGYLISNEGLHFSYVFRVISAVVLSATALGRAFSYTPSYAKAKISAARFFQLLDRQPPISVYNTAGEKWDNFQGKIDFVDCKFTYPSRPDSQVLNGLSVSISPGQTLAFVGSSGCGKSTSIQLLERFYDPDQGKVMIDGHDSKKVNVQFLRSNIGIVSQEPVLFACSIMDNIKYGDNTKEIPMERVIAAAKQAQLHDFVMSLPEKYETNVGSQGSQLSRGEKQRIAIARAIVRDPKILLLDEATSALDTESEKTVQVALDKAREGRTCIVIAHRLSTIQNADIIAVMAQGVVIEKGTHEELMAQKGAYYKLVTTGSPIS

| Compound | IC50 ([1]; Leishmania donovani) [µM] | IC50 [2] [µM] | solubility [4] [µg/mL] | solubility kinetic [4] [µM] | chromatographic logD [7, 14] | chromatographic logD [7, 15] | EC50 [2] [µM] | tolerability in mouse PK study ([3]; mouse) | Cli (mouse liver microsomal intrinsic clearance) [8] [mL/min/g] | Cli (mouse, ml/min/g) [8] [mL/min/g] | LdInMac pIC50 [1] | ChromLogDpH7.4 [7] | ChromLogD ([7]; supplement sheet) | THP-1 (pEC50) [2] | THP1 pIC50 [2] | also measured |
| --- | --- | --- | --- | --- | --- | --- | --- | --- | --- | --- | --- | --- | --- | --- | --- | --- |
| CNC(=O)c1nc(-c2ccccc2OC)c2cccnc2c1O [Compound 26, 8-Hydroxy-5-(2-methoxyphenyl)-N-methyl-1,6-naphthyridine-7-carboxamide] | 10 | 39.8 | – | – | – | – | – | – | – | – | – | – | – | – | – | parent remaining in blood ([3]; Balb C mice, 8 h post-dose): significant quantities of parent were still present 8 h post-dose; in vivo glucuronidation / metabolites ([3]; Balb C mice, blood): little evidence of glucuronidation |
| COc1ccccc1-c1nc(C(=O)N[C@H]2CC[C@H](OC)CC2)c(O)c2ncccc12 [Compound 34, 8-Hydroxy-N-(trans-4-methoxycyclohexyl)-5-(2-methoxyphenyl)-1,6-naphthyridine-7-carboxamide] | 1 | 39.8 | > 250 | > 250 | 5.7 | 5.7 | 39.8 | displayed the similar symptoms as with compound 28 | 1.4 | 1.4 | – | – | – | – | – | EC50 ([1]; Leishmania donovani, THP-1, 96 h, L. donovani amastigotes in THP-1 cells, 96 h compound exposure, read-out: Ld InMac (pEC50) (converted)): 1 µM; activity in phospholipidosis assay [5]: activity; IC50 [6]: 15.8 µM; time after which study was terminated ([3]; mouse): 60 min; pIC50 in phenotypic cell health assay [9]: showed potency in the cell health assay |
| COc1ccccc1-c1nc(-c2nc(C)n[nH]2)c(O)c2ncccc12 [Compound 16, 5-(2-Methoxyphenyl)-7-(3-methyl-1H-1,2,4-triazol-5-yl)-1,6-naphthyridin-8-ol] | – | – | – | >250 | – | – | – | – | 0.8 | 0.8 | 6.2 | 3.2 | 3.2 | <4.3 | <4.3 | Ld InMac (pEC50) ([1]; L. donovani amastigotes in THP-1 cells, 96 h compound exposure): 6.2; reduction of parasite burden in mouse liver ([10]; 50 mg/kg ip twice daily, 5 days): 46%; VL mouse efficacy model Reduction in parasite levels % ([10]; supplement sheet): 46%; Tmax [11]: 30 min; Tmax ([11]; ip, 50 mg/kg): 30 min; glucuronidated adducts in blood samples ([11]; ip, 50 mg/kg): presence of glucuronidated adducts; time unbound blood concentration exceeds EC99 ([11]; ip, 50 mg/kg): only during the first hour post-dose; glucuronide adduct observed in hepatocytes [12]: negligible amounts of the glucuronide adduct; clearance in mouse hepatocytes ([12]; mouse, hepatocytes): 1.4 mL/min/g |
| 5-(Dimethylamino)-7-(3-methyl-1H-1,2,4-triazol-5-yl)-1,6-naphthyridin-8-ol [Compound 9] | – | – | – | >250 | – | – | – | – | 14 | 14 | 4.8 | -0.6 | -0.6 | <4.3 | <4.3 | – |
| CC(NC(=O)c1ncc2cccnc2c1O)c1ccc(F)cc1 (stereo not drawn) [Compound 28, N-(1-(4-Fluorophenyl)ethyl)-8-hydroxy-1,6-naphthyridine-7-carboxamide] | 0.158 | 5.01 | > 250 | > 250 | 5.1 | 5.1 | 5.01 | proved to be toxic | 3.7 | 3.7 | – | – | – | – | – | IC50 [13]: 3.98 µM; time to symptoms requiring termination ([3]; mouse): ≤ 3.5 h; IC50 ([9]; read-out: pIC50 in phenotypic cell health assay (converted)): 12.6 µM |
